Measured values: patent US4438120A, “Pyridoindolobenzodiazepine tranquilizers” (E. I. Du Pont de Nemours & Company, priority 1982, dated 1984)

tested on: Conditioned Avoidance Response (CAR); test: Conditioned Avoidance Response (CAR) test in mice, oral; format: in vivo, mouse (female white mice); details: female white mice, moving average method
Experimental: The paradigm used for predicting tranquilizer activity was a Conditioned Avoidance Response (CAR) test in mice. Female white mice, 19-23 g, were used. The apparatus modified from Bovet, D. et al., Science, 163, 139-149 (1969), was a one-way shuttlebox with 0.4 mA scrambled electric footshock as unconditioned stimulus (US) and a 6 watt white light plus a relay buzzer as conditioned stimuli (CS). Mice were conditioned by three sets of 1-5 trials on day 1, then were fasted for 17-21 hours. The conditioned mice were tested for retention of the conditioned response on day 2, and then were dosed orally with test drug at doses such as 0, 1, 3, 9, 27 and 81 mg/kg. ED50 values (doses at which 50% of the animals would be expected to show response failure) were calculated by the moving average method [Thompson, W. R., Bact. Rev., 11, 115 (1947)].

Molecule	Mouse CAR ED50 (avoidance ED50, dose at which 50% of the animals would be expected to show response failure)
5-Chloro-1,2,3,4-tetrahydro-3-(3-oxobutyl)pyrido[4',3':2,3]indolo[1,7-ab][1,4]benzodiazepin-8(9H)-one [Example 52]	39 mg/kg
CCN1CC[C@@H]2[C@@H](C1)c1cc(Cl)cc3c1N2c1ccccc1CN3.Cl.Cl (relative stereo) [Example 96, trans-6-Chloro-3-ethyl-1,2,3,4,4a,8,9,14a-octahydropyrido[4',3':2,3]indolo[1,7-ab][1,4]benzodiazepine, Dihydrochloride]	0.3 mg/kg
CN1CC[C@@H]2[C@@H](C1)c1cccc3c1N2c1ccccc1CN3 (relative stereo) [Example 97]	9.0 mg/kg
CN1CC[C@@H]2[C@@H](C1)c1cccc3c1N2c1ccc(Cl)cc1CN3 (relative stereo) [Example 99]	1.4 mg/kg
CN1CC[C@@H]2[C@@H](C1)c1cc(Cl)cc3c1N2c1ccc(Cl)cc1CN3 (relative stereo) [Example 100]	2.1 mg/kg
Cc1ccc2c(c1)CNc1cc(Cl)cc3c1N2[C@@H]1CCN(C)C[C@@H]31 (relative stereo) [Example 101]	0.69 mg/kg
CCN1CC[C@@H]2[C@@H](C1)c1c(Cl)ccc3c1N2c1ccccc1CN3 (relative stereo) [Example 102]	5.8 mg/kg
CCN1CC[C@@H]2[C@@H](C1)c1cc(C(F)(F)F)cc3c1N2c1ccccc1CN3 (relative stereo) [Example 103]	1.2 mg/kg
CCN1CC[C@@H]2[C@@H](C1)c1cccc3c1N2c1ccccc1CN3C (relative stereo) [Example 104]	41 mg/kg
CCN1CC[C@@H]2[C@@H](C1)c1cccc3c1N2c1ccc(Cl)cc1CN3 (relative stereo) [Example 105]	24 mg/kg
CCN1CC[C@@H]2[C@@H](C1)c1cc(Cl)cc3c1N2c1ccccc1CN3C (relative stereo) [Example 106]	5.8 mg/kg
CCN1CC[C@@H]2[C@@H](C1)c1cc(C(F)(F)F)cc3c1N2c1ccccc1CN3C (relative stereo) [Example 107]	10.1 mg/kg
CCCCCCN1CC[C@@H]2[C@@H](C1)c1cc(Cl)cc3c1N2c1ccc(C)cc1CN3 (relative stereo) [Example 108]	2.5 mg/kg
Clc1ccc2c(c1)CNc1cccc3c1N2[C@@H]1CCN(CC2CC2)C[C@@H]31 (relative stereo) [Example 109]	2.1 mg/kg
FC(F)(F)c1cc2c3c(c1)[C@@H]1CN(CC4CC4)CC[C@H]1N3c1ccccc1CN2 (relative stereo) [Example 110]	15.6 mg/kg
c1ccc2c(c1)CNc1cccc3c1N2[C@@H]1CCN(CC2CCCCC2)C[C@@H]31 (relative stereo) [Example 111]	3.3 mg/kg
CN1Cc2ccccc2N2c3c(cccc31)[C@@H]1CN(Cc3ccccc3)CC[C@H]12 (relative stereo) [Example 112]	6.8 mg/kg
Cc1ccc2c(c1)CNc1cc(Cl)cc3c1N2[C@@H]1CCN(CCc2ccccc2)C[C@@H]31 (relative stereo) [Example 113]	3.5 mg/kg
Clc1ccc2c(c1)CNc1cccc3c1N2[C@@H]1CCN(CCc2ccccc2)C[C@@H]31 (relative stereo) [Example 114]	5.2 mg/kg
